For this test, the target named is Ubiquitin-conjugating enzyme E2 N (Homo sapiens) (UniProt P61088). The test can be described thus: UBE2N binders by NMR, biophysical, purified protein (AID 1552). Conditions: NMR binding to purified UBE2N.

Active and inactive are the calls of the source. The rule behind the calls is not given here.

Ubiquitin-conjugating enzyme E2 N (Homo sapiens), sequence (P61088 whole entry, looked up): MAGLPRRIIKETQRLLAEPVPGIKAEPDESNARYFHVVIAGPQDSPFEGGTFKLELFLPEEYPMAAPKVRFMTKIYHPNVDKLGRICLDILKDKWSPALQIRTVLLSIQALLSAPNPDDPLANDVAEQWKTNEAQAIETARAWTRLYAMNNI

As for `CC(=O)c1cccc(NC2=NCC(C)(C)S2)c1`, the Kd (in general, the concentration at which binding is half-saturated) was > 4 mM (inactive).

As to `Nc1ccc2nsnc2c1`, the Kd is > 4 mM (inactive).

Take `COc1ccc(-c2coc3cc(O)ccc3c2=O)c(O)c1O`: the Kd was > 4 mM (inactive).

With `CCC1C(=O)OCC1Cc1cncn1C` (configuration not stated), the Kd is > 4 mM (inactive).

Take `O=C1CSC(=NC(=O)c2ccccc2)N1`: the Kd was > 4 mM (inactive).

Regarding `Cn1cnnc1SCCCNC(=O)Nc1ncccn1`, the Kd is > 4 mM (inactive).

Turning to `NC(=O)C1CCN(C(=O)c2ccccc2)CC1`, the Kd is > 4 mM (inactive).

In the case of `NC(=O)CS(=O)(=O)c1ccc(Cl)cc1`, the Kd is > 4 mM (inactive).

For the molecule `O=CN1CCN(C2CC(=O)N(c3ccccc3)C2=O)CC1` (configuration not stated), the Kd is > 4 mM (inactive).

Turning to `Cc1ccc2[nH]c3nc(=S)[nH]nc3c2c1`, the Kd was > 4 mM (inactive).

Take `NC(=O)C1CCCN1S(=O)(=O)c1ccc(F)cc1` (configuration not stated): the Kd was > 4 mM (inactive).

As for `CN=C(C)c1c(O)n(C)c(=O)n(C)c1=O`, the Kd is > 4 mM (inactive).

`COc1ccc(C(=O)O)cc1OC`: the Kd is > 4 mM (inactive).

`CCSc1nc(=S)n(CC)c(C)c1C(C)=O`: the Kd was > 4 mM (inactive).

As to `CCn1cnc2scc(-c3ccccc3)c2c1=O`, the Kd is > 4 mM (inactive).

Take `COc1cc2nc(-c3cccs3)oc(=O)c2cc1OC`: the Kd is > 4 mM (inactive).

In the case of `Cc1nc2nc(COc3ccccc3)nn2c(C)c1Cl`, the Kd is > 4 mM (inactive).

For the molecule `COc1ccc(-c2oc3cc(O[C@H]4O[C@H](CO)[C@@H](O)[C@H](O)[C@H]4O)c(OC)c(O)c3c(=O)c2OC)cc1O`, the Kd is > 4 mM (inactive).

Consider `CS(=O)(=O)c1ccccc1C(=O)Nc1nccs1`, for which the Kd was > 4 mM (inactive).

For the molecule `O=C(c1ccccc1-c1ccccc1)N1CCOCC1`, the Kd is > 4 mM (inactive).

Consider `COC(=O)c1sccc1S(=O)(=O)N1CCCC1`, for which the Kd was > 4 mM (inactive).

As to `O=c1c(Cl)c(NCCO)ncn1-c1ccccc1`, the Kd is > 4 mM (inactive).

As for `NC(=O)CSc1ccccn1`, the Kd is > 4 mM (inactive).

Consider `c1ccc(-n2cnnc2)nc1`, for which the Kd is > 4 mM (inactive).

As to `Cc1cccc(NC(=O)Nc2cc(C)on2)c1`, the Kd was > 4 mM (inactive).

Consider `NC(=O)CSc1nc2ccccc2o1`, for which the Kd is > 4 mM (inactive).

For the molecule `O=C(NCc1ccccn1)c1ccccc1Cl`, the Kd was > 4 mM (inactive).

As to `O=C1NC2NC(=O)N(c3ccccc3)C2N1` (configuration not stated), the Kd is > 4 mM (inactive).

For `CSc1nc2nc(C)cc(=O)n2[nH]1`, the Kd was > 4 mM (inactive).

Take `CCn1cnc(C(=O)NC)c1C(=O)NC`: the Kd was > 4 mM (inactive).

On to `COc1ccc2c(c1OC)C(=O)O[C@H]2[C@H]1c2cc3c(cc2CCN1C)OCO3`, for which the Kd was > 4 mM (inactive).

Turning to `OCc1ccc(-n2cncn2)cc1`, the Kd is > 4 mM (inactive).

In the case of `COc1cc(OC)c2c(=O)c(O)c(-c3ccc(OC)c(OC)c3)oc2c1`, the Kd was > 4 mM (inactive).

Turning to `CN(C)N1C(=O)C2C3C=CC(O3)C2C1=O` (configuration not stated), the Kd is > 4 mM (inactive).

`O=c1ccc2ccc(O)cc2o1`: the Kd is > 4 mM (inactive).

For `O=C1CCC(C(=O)NCc2cccnc2)N1` (configuration not stated), the Kd is > 4 mM (inactive).

Take `Cc1n[nH]c(=S)[nH]c1=O`: the Kd was > 4 mM (inactive).

Turning to `Nc1cccc(C(=O)c2ccccc2)c1`, the Kd is > 4 mM (inactive).

In the case of `Cc1cc(NS(=O)(=O)Cc2ccccc2)no1`, the Kd was > 4 mM (inactive).

Regarding `CC(C)[C@@H]1CC[C@@H](C)CC1=O`, the Kd is > 4 mM (inactive).

In the case of `NS(=O)(=O)c1ccc(N2CCCC2=O)cc1`, the Kd was > 4 mM (inactive).

For `CC(CO)NC(=O)C1C=C2c3cccc4[nH]cc(c34)C[C@H]2N(C)C1` (some centres not stated), the Kd is > 4 mM (inactive).

Regarding `O=C(NCO)c1ccccc1Cl`, the Kd is > 4 mM (inactive).

Take `O=C(Cc1ccc(F)cc1)Nc1ncccn1`: the Kd is > 4 mM (inactive).

For `CCN1C[C@@]2(COC)C3[C@@H](OC)[C@H]4[C@@H]1[C@]3(C(OC)C[C@H]2O)C1C[C@@]2(O)[C@H](OC(=O)c3ccccc3)C1[C@]4(OC(C)=O)[C@@H](O)[C@@H]2OC` (some centres not stated), the Kd was > 4 mM (inactive).

For `Cc1cc(N)on1`, the Kd is > 4 mM (inactive).

In the case of `N#CCc1nc2ccccc2s1`, the Kd is > 4 mM (inactive).

On to `COc1c(C(C)C)oc2cc3oc(=O)ccc3cc12`, for which the Kd was > 4 mM (inactive).

On to `Cc1nn(CC(=O)N2CCCCC2)c(=O)c2ccccc12`, for which the Kd was > 4 mM (inactive).

Consider `c1cc(CNc2ccc3c(c2)OCCO3)ccn1`, for which the Kd was > 4 mM (inactive).

In the case of `O=C(O)CC(O)c1nc2ccccc2[nH]1` (configuration not stated), the Kd was > 4 mM (inactive).

In the case of `Cc1cc(C)c(C(N)=O)c(=S)[nH]1`, the Kd was > 4 mM (inactive).

For `c1ccc(SCc2nc(-c3ccccn3)no2)cc1`, the Kd was > 4 mM (inactive).

As to `Cc1noc(-c2ccccc2)c1C(=O)O`, the Kd was > 4 mM (inactive).

As to `O=C1NC(=O)C2C3C=CC(O3)C12` (configuration not stated), the Kd was > 4 mM (inactive).

Consider `c1ccc(-n2nnnc2Oc2cccc3cccnc23)cc1`, for which the Kd is > 4 mM (inactive).

With `COc1ccc2ccc(=O)oc2c1`, the Kd is > 4 mM (inactive).

Take `CSCCNC(C)=O`: the Kd is > 4 mM (inactive).

Take `Cc1csc2nc(N)nn12`: the Kd is > 4 mM (inactive).

Consider `COc1cc(O)c2c(=O)c(O)c(-c3ccc(O)c(O)c3)oc2c1`, for which the Kd was > 4 mM (inactive).

In the case of `O=C(O)c1ccnn1-c1ccccc1`, the Kd is > 4 mM (inactive).

For the molecule `O=C(CSc1cccc2cccnc12)N1CCCC1`, the Kd was > 4 mM (inactive).

Regarding `O=C(Cc1ccccc1)Nc1c[nH]c(=O)[nH]c1=O`, the Kd was > 4 mM (inactive).

As to `Cc1cc(=O)n(C(N)=S)[nH]1`, the Kd is > 4 mM (inactive).

With `Oc1cc(O)c2c(c1)O[C@H](c1ccc(O)c(O)c1)[C@@H](O)C2`, the Kd was > 4 mM (inactive).

`Cc1cc(C)n(-c2nncn2N)n1`: the Kd was > 4 mM (inactive).

On to `Cc1noc(C)c1C(=O)N1CCc2ccccc2C1`, for which the Kd is > 4 mM (inactive).

As for `Cc1cc(C)n(S(=O)(=O)c2ccc(C(C)(C)C)cc2)n1`, the Kd was > 4 mM (inactive).

Regarding `Cc1n[nH]c(C)c1NC(=O)c1cccc(F)c1`, the Kd is > 4 mM (inactive).

With `NC1CCN(Cc2ccccc2)CC1`, the Kd is > 4 mM (inactive).

Turning to `Nc1nnc(Cc2ccc(Cl)cc2)s1`, the Kd is > 4 mM (inactive).

For `COc1ccccc1NC(=O)c1ccc(Br)o1`, the Kd was > 4 mM (inactive).

Turning to `OC12CC3CC(CC(C3)C1)C2`, the Kd is > 4 mM (inactive).

Consider `COc1ccc(-c2coc3cc(O)ccc3c2=O)c(OC)c1`, for which the Kd was > 4 mM (inactive).

`CC1(C)CC2C1CCC1(C)OC2(C)CCC1O` (configuration not stated): the Kd is > 4 mM (inactive).

Regarding `CCOC(=O)CSc1nnc(C)c(=O)[nH]1`, the Kd is > 4 mM (inactive).

Take `CN1CCN(C(=S)NC(=O)c2ccn(C)n2)CC1`: the Kd was > 4 mM (inactive).

Regarding `Cc1nc2ccc(F)cc2cc1C(=O)NCc1ccco1`, the Kd was > 4 mM (inactive).

As for `COc1cc2nc[nH]c(=O)c2cc1OC`, the Kd was > 4 mM (inactive).

Turning to `CCCn1cnc2sc(C(N)=O)c(C)c2c1=O`, the Kd was > 4 mM (inactive).

For the molecule `CC(=O)Nc1ccc(C(=O)NC2CCSC2=O)cc1` (configuration not stated), the Kd was > 4 mM (inactive).

On to `CC(=O)/C=C\[C@@H]1[C@@]2(C)CCCC(C)(C)C2CC[C@@]1(C)O` (some centres not stated), for which the Kd is > 4 mM (inactive).

In the case of `COC(=O)c1c(C)cc(OC)cc1O`, the Kd was > 4 mM (inactive).

On to `Cc1ccn(S(=O)(=O)c2ccc(C(C)(C)C)cc2)n1`, for which the Kd is > 4 mM (inactive).

In the case of `OCCNc1nc2ccc(Cl)cc2[nH]1`, the Kd was > 4 mM (inactive).

On to `CCCCCCCCCCCC1=C(O)C(=O)C=C(O)C1=O`, for which the Kd was > 4 mM (inactive).

In the case of `CC(C)=CCC[C@](C)(O)C1CC=C(C)CC1` (some centres not stated), the Kd is > 4 mM (inactive).

For the molecule `O=S(=O)(Cc1ccc(Cl)cc1)N1CCCC1`, the Kd was > 4 mM (inactive).

On to `O=C(NC(=O)N1CCOCC1)c1ccccc1`, for which the Kd was > 4 mM (inactive).

Take `Nc1ncnc2c1ncn2CCOc1ccccc1`: the Kd was > 4 mM (inactive).

As to `NCc1ccc2occc2c1`, the Kd was > 4 mM (inactive).

In the case of `CS(=O)(=O)Nc1cc2c3c(c1)CCN3C(=O)CC2`, the Kd is > 4 mM (inactive).

On to `Nc1nc(-c2ccncc2)cs1`, for which the Kd was > 4 mM (inactive).

`O=C(O)C(Cc1cnc[nH]1)N1C(=O)c2ccccc2C1=O` (configuration not stated): the Kd was > 4 mM (inactive).

On to `Brc1cccc(-c2nnco2)c1`, for which the Kd was > 4 mM (inactive).

Regarding `O=C(O)CCCCCCCC(=O)O`, the Kd is > 4 mM (inactive).

With `CC(=O)Nc1ccc(-c2cn3ccsc3n2)cc1`, the Kd is > 4 mM (inactive).

Regarding `CCCc1cc2c(c(NC(C)=O)n1)c(=O)oc1ccccc12`, the Kd is > 4 mM (inactive).

On to `Cc1cc(N2CCCC2=O)c(N)cc1N`, for which the Kd was > 4 mM (inactive).

For `Cc1cc(C(=O)N2CCN(c3ncccn3)CC2)cs1`, the Kd was > 4 mM (inactive).

`Cn1cnc2ccc([N+](=O)[O-])cc2c1=O`: the Kd was > 4 mM (inactive).

`CCCn1c(S(=O)(=O)O)nc2ccccc21`: the Kd is > 4 mM (inactive).

For the molecule `O=C(CCc1ccc(O)cc1)c1c(O)cc(O)cc1O`, the Kd was > 4 mM (inactive).

As to `CC(=O)Nc1cccc(NC(=O)c2ccco2)c1`, the Kd was > 4 mM (inactive).

`CC1=C/C(=C\c2c(O)[nH]c(=O)[nH]c2=O)C(C)=N1`: the Kd is > 4 mM (inactive).

As for `Cc1nn(-c2ccccc2)nc1C(N)=O`, the Kd is > 4 mM (inactive).

Regarding `COc1ccc(N2C(=N)C(C)(C)NC2=O)cc1`, the Kd is > 4 mM (inactive).

Values taken from PubChem BioAssay AID1552 (Sanford-Burnham Center for Chemical Genomics, 2009).
